In patent US20130309337A1, “PROCESS FOR THE PREPARATION OF PLANT EXTRACTS FOR TREATING SKIN DISORDERS AND ENHANCING HEALING OF WOUNDS” (DEVELOPMENT CENTER FOR BIOTECHNOLOGY, priority 2007, published 2013):

Tested on: STZ-induced diabetic rats
Experiment: Wound closure in STZ-induced diabetic rats (full-thickness dorsal excision wounds, topical application twice a day)
Assay type: in vivo, rat
Conditions: Example 6, Table 1
Experimental: Rats with a body weight of over 300 g were administered with Streptozotocin (STZ, 65 mg/kg, i.p.) to induce high blood sugar.
• i. The high-blood-sugar animals with a body weight of lower than 300 g were eliminated and the rest were randomized into 6 groups. • ii. The animals were anesthetized with pentobarbital and the hair on the surgical area (dorsal area) was removed. The surgical areas and instruments were then sterilized with 75% alcohol before operation. • iii. The skins on the dorsal medium areas (4, 6 and 8 cm from the midpoint of two scapula) were excised (full thickness) using a round cutting blade with a diameter of 1 cm. Measuring the Wounds, Applying Testing Materials, and Preventing the Wounds from Being Scratched • i. A standard ruler was placed beside the wounds and pictures were taken. • ii. A thin layer of the test materials formulated as ointments and 0.05 ml of CGS21680 solution were applied to each wound. • iii. The wounds were covered with gauze and hoods were worn on the rats' necks.
Test materials were applied to the rats twice a day (morning and evening) and the wounds were measured at each time point.
A standard ruler was placed beside the wounds when pictures were taken. The length of the wounds was standardized according to the scale of the standard ruler in the pictures before the wounds were analyzed with the image processing software Image-Pro (Media Cybernetics, Inc.) to avoid the errors caused by different picturing distances.
The areas of the three wounds on the rats' backs were analyzed by Image-Pro. The wound areas of day zero were the original wound areas. The original wound areas minus the wound areas at different time points were divided by the original wound areas to get the wound closure percentages. The mean of the three wound closure percentages of each rat represents the wound closure of each rat. Four to seven rats per group were used for each test materials. The data was shown as mean±standard error (SEM). The p-values of the test results were calculated by t-test in statistics software sigma statis (Systat software Inc.). P<0.05 means there is a significant difference, and it is marked with * on the statistics charts or tables. P<0.01 means there is a very significant difference, and it is marked with ** on the statistics charts or tables. P<0.001 means there is an extremely significant difference, and it is marked with *** on the statistics charts or tables.
The purpose of this example is to compare the efficacy of the composition of the present invention and that of the commercially available products on wound closures. The wound closure animal experiments were conducted according to Example 5. On day 0, 4, 6, 8, 10 and 12 after the treatments of placebo (Group 1), 1% S1 ointment (Group 2), CGS-21680 (Group 3), Regranex (Group 4), DCB-WH1-C (Group 5) and DCB-WH1-W (Group 6), the wound areas of all experimental groups were measured and the wound closure percentages and CT50 (time required for 50% wound closure) values were calculated.
The purpose of this example is to compare the efficacy of DCB-WH1-W with that of its active ingredients in wound closures. The test materials are placebo (Group 1), 1% S1 ointment (Group 2), 0.25% PA-W4 ointment (Group 3), DCB-WH1-W (Group 4) and 1% PA-W4 ointment (Group 5). The wound closure animal experiments were conducted according to Example 5. On day 0, 4, 9, 11 and 13 after the treatment with the test materials, the wound areas of all experimental groups were measured and the wound closure percentages and CT50 were calculated.

Structure (SMILES): CCNC(=O)[C@H]1O[C@@H](n2cnc3c(N)nc(NCCc4ccc(CCC(=O)O)cc4)nc32)[C@H](O)[C@@H]1O [CGS-2168, CGS-21680]
- CT50 (time required for 50% wound closure): 10.3 days
- Wound closure percentage (%) Day 4 (day 4 after treatment, mean ± SEM, topical twice a day): −21.3 ± 4.8%
- Wound closure percentage (%) Day 6 (day 6, mean ± SEM): −27.38 ± 3.2%
- Wound closure percentage (%) Day 8 (day 8, mean ± SEM): −2.4 ± 4.1%
- Wound closure percentage (%) Day 10 (day 10, mean ± SEM): 46.7 ± 6.0%
- Wound closure percentage (%) DAY 12 (day 12, mean ± SEM): 71.7 ± 2.4%
